Assay results published in patent publication US7232814B2 (Centre National de la Recherche Scientifique (C.N.R.S.), priority 2000, dated 2007).

| melting point [°C] | Structure (SMILES) |
| --- | --- |
| > 330 | COc1cc2c(cc1OC)-c1[nH]c3ccc(C#N)cc3c1CC(=O)N2 [98 N 217, 2,3-Dimethoxy-6-oxo-5,6,7,12-tetrahydro-indolo [3,2-d][1]benzazepin-9-carbonitrile(9-cyano-2,3-dimethoxypaullone)] |
| > 330 | O=C1Cc2c([nH]c3ccc([N+](=O)[O-])cc23)-c2cc(Br)ccc2N1 [98 N 354, 2-Bromo-7,12-dihydro-9-nitro-indolo[3,2-d][1]benzazepin-6(5H)-one(2-bromo-9-nitropaullone)] |
| > 330 | COc1cc2c(cc1OC)-c1[nH]c3ccc([N+](=O)[O-])cc3c1CC(=O)N2 [98 N 356, 2,3-Dimethoxy-7,12-dihydro-9-nitro-indolo[3,2-d][1]benzazepin-6(5H)-one(2,3-dimethoxy-9-nitropaullone)] |
